Consider two molecules from PMC6950563, “Epinecidin-1 Protects against Methicillin Resistant Staphylococcus aureus Infection and Sepsis in Pyemia Pigs” (Marine Drugs, 2019).

Like-named read-outs stand apart in the source and are kept apart here. Residues, ends and D or L forms follow the SMILES beside them.

Data set [1] relates to MRSA. It is filed as cell-based, Staphylococcus aureus. The note with it: for pathogens killed (time-kill): 4 h. The procedure: At 4, 8, 12, and 24 h post-treatment, the number of viable bacteria (CFU) was determined for the time-kill experiment.
The conditions of data set [2]: pigs.
Experimental: (§1) Approximately 3 mL of blood was taken from the carotid artery at 0, 10, 20, 30, and 60 minutes and at 60 minutes intervals thereafter until 600 minutes had passed.
Data set [3] can be described thus: Acute intravenous toxicity in pigs. It is filed as in vivo, pig. Here is the method: Acute intravenous (i.v.) toxicity was analyzed as described previously. Acute i.v. toxicity was assessed after administration of 25, 50, 100, and 200 mg/kg body weight of Epi-1 in pigs; 1 to 5 animals per group. After injection, the animals were kept under visual observation up to 1 h, and the rate of mortality and clinical symptoms were recorded every 2 h for a total of 24 h. For blood analysis, 5 mL of heparin-stabilized blood was taken and stored at 4 °C. Serum was separated from the blood sample using a serum separator gel tube (catalogue number 367955, Becton-Dickinson, Franklin Park, NJ, USA), according to the vendor’s instructions. Serum GOT, GPT, UA, BUN, and CRT activity levels were determined using an automated analyzer (FUJI DRI-CHEM 4000i, Fujifilm, Tokyo, Japan) according to the manufacturers’ instructions. Standard controls were analyzed before each determination.

For data set [4] the following is noted: 25% human serum in RPMI, 37 °C, LC-MS/MS. Here is the method: Human serum (catalogue number BP2657100, Fisher Scientific, Millersburg, PA, USA) was suspended in RPMI medium up to 25%, and 0.990 mL was transferred to a 1.5 mL micro centrifuge tube. The serum-containing tube was incubated at 37 °C for 15 min, and 10 mg/mL Epi-1 was added to obtain a final peptide concentration of 100 μg/mL. At constant time intervals 100 μL of the experimental mix was taken out, and serum protein was precipitated in two volumes of 95% ethanol solution. The cloudy precipitate was cooled at 4 °C for 15 min, and then the serum was precipitated and pelleted by centrifugation at 18,000 × g for 2 min. The peptide stability in the supernatant was then analyzed by a liquid chromatography tandem mass spectrometer (LC-MS/MS) (Mission Biotech, Taipei, Taiwan).

Another data set is described as follows: in vivo. To be noted: pig, iv.
The test system of data set [5] is MRSA. Description: Histopathology (H&E) of major organs of infected pigs. It is filed as in vivo, pig. To be noted: vancomycin 0.5 mg/kg, day 7. Here is the method:
Tissue samples from the heart valve, left diaphragmatic lobe of the lung, left lateral lobe of the liver, and left kidney were collected and fixed in PBS buffer containing 4% formaldehyde for 24 h. Fixed samples were immersed in different concentrations of xylene and ethanol before embedding in paraffin. The processed samples were sectioned at 8–10 µm using a microtome. The sections were stained for histological analysis with hematoxylin and eosin (H&E) after rehydration.

For data set [6], the system named is MRSA. As to the kind of experiment: Survival of MRSA-infected pyemia pigs. Format: in vivo, pig. The procedure:
Administration of bacteria or mock treatment followed by flushing with 5 mL of sterile isotonic saline was performed by i.v. through a 22G catheter inserted in the right femoral vein. The catheter was removed after administration. Another 22G catheter was then inserted into the left femoral vein and secured with stitches. The catheter was flushed with 10 mL sterile isotonic saline solution, and then with 2 mL of 100 I.U./mL sterile heparin solution (catalogue number H3149, Sigma Chemical Co., St. Louis, MO, USA) for blood sampling. During blood sampling, the initial 5 mL of blood was discarded to avoid the heparin carryover. Five pigs were inoculated with the MRSA strain (1 × 10^9 CFU/kg) only. […] Samples were subsequently collected for histopathology, microbial studies, and bacterial count.

[7] abbreviates: pig, Epi-1 200 mg/kg single i.v., n=1, died in one hour after injection.

Experimental for in vivo: as §1

With `CC[C@H](C)[C@H](NC(=O)[C@H](CCSC)NC(=O)[C@H](CCCCN)NC(=O)CNC(=O)[C@H](C)NC(=O)[C@H](Cc1c[nH]cn1)NC(=O)[C@H](Cc1ccccc1)NC(=O)[C@H](CC(C)C)NC(=O)CNC(=O)[C@H](CCCCN)NC(=O)[C@@H](NC(=O)[C@@H](NC(=O)[C@H](Cc1c[nH]cn1)NC(=O)[C@H](Cc1ccccc1)NC(=O)[C@@H](NC(=O)[C@H](Cc1ccccc1)NC(=O)CN)[C@@H](C)CC)[C@@H](C)CC)[C@@H](C)CC)C(=O)N[C@@H](Cc1c[nH]cn1)C(=O)NCC(=O)N[C@@H](CC(C)C)C(=O)N[C@H](C(N)=O)C(C)C` [Epi-1, epinecidin-1] (H-GFIFHIIKGLFHAGKMIHGLV-NH2), in the data set with MRSA [1] (1), the “pathogens killed (time-kill)” value stood at 90%. In the data set with MRSA [1] (2), the “pathogens killed (time-kill)” value is reported as 90%. Moreover, in data set [2] (i.v.), the “time post i.v. injection up to which Epi-1 is stable in serum” value is “up to 4 h” and the “time post-injection up to which Epi-1 was detected in serum” value is on record as “up to 240 min”. Moreover, in data set [3] (setting [7]), the BUN entry was “Died”, the CRE entry is given as “Died”, the GOT result is recorded as “Died” and the GPT entry was “Died”. Also, the “Serum UA” value in data set [3] (setting [7]) was “Died”. Further, the “doses that did not cause abnormal behavior, mortality, or activity” value in data set [3] (single i.v. injection, piglets starved 12 h, observed every 2 h up to 24 h) is recorded as “up to 100 mg/kg”. The “concentration of free Epi-1 in serum, initial” value in data set [4] (15 min pre-incubation, nominal 100 µg/mL, ethanol precipitation, start, mean ± SEM, three independent experiments) is 7360 ± 300 ng/mL. Moreover, the “time up to which the free Epi-1 concentration did not change (after the initial 30 min)” value in data set [4] is given as “up to 7 h”. For the same molecule, in data set [4] (Figure 2C), the “time for which Epi-1 was stable in human serum in vitro” value was “up to 400 min”. Besides, the “concentration of free Epi-1 in serum after the initial 30 min” value in data set [4] (nominal 100 µg/mL, ethanol precipitation, 30 min, mean ± SEM, three independent experiments) came to 5940 ± 120 ng/mL. Besides, the half-life in “in vivo” (plasma) was about 4 h. Moreover, the level at 5 h in the data set “in vivo” (serum, 0.5 mg/kg) is 2920 ± 957 ng/mL. In the data set “in vivo” (serum, 1.5 mg/kg), this molecule returned a level at 10 min of 9061 ± 60 ng/mL and a level at 5 h of 3780 ± 219 ng/mL. In the data set “in vivo” (serum, 2.5 mg/kg), this molecule returned a level at 5 h of 8880 ± 205 ng/mL.
Consider `CN[C@H](CC(C)C)C(=O)N[C@H]1C(=O)N[C@@H](CC(N)=O)C(=O)N[C@H]2C(=O)N[C@H]3C(=O)N[C@H](C(=O)N[C@H](C(=O)O)c4cc(O)cc(O)c4-c4cc3ccc4O)[C@H](O)c3ccc(c(Cl)c3)Oc3cc2cc(c3O[C@@H]2O[C@H](CO)[C@@H](O)[C@H](O)[C@H]2O[C@H]2C[C@](C)(N)[C@H](O)[C@H](C)O2)Oc2ccc(cc2Cl)[C@H]1O` [vancomycin], for which the “killing of MRSA” value in the data set on MRSA [1] (at 24 h, about 1 × 10^6 cells, Figure 1B) is 95%. For the same molecule, in the data set on MRSA [5], the “Heart: infective endocarditis (animals with clinical signs/total examined)” value is on record as 0/5; the “Kidney: cystic tubules, cortical (animals with clinical signs/total examined)” value is recorded as 0/5; the “Liver: liver abscess (animals with clinical signs/total examined)” value was 1/5; the “Lung: inflammation, pulmonary edema (animals with clinical signs/total examined)” value is on record as 2/5. For the same molecule, the “course of the serum concentration of vancomycin” value in data set [2] (vancomycin 0.5 mg/kg i.v., up to 360 min, LC-MS-MS, Supplementary Figure S1) was “very stable”. Moreover, the “survival against MRSA infection” value with MRSA [6] (MRSA 1 × 10^9 CFU/kg i.v., vancomycin 0.5 mg/kg i.v. 30 min post-infection, 7 days) is listed as 80%. Also, in the data set on MRSA [6] (MRSA 10^9 CFU/kg i.v., vancomycin 0.5 mg/kg, n=5), the “Survival Rate (Day PI)” value is listed as 80.

Usually half-life stands for the time in which the quantity being followed falls by half. Read a low half-life as rapid decline.
